The source of these data is BindingDB's records for doi:10.1021/jm00072a017 (Farmitalia Carlo Erba, 1993).

In this assay the target is T1, Thromboxane-A synthase (Rattus norvegicus, UniProt P49430).
T1 sequence (P49430 whole entry): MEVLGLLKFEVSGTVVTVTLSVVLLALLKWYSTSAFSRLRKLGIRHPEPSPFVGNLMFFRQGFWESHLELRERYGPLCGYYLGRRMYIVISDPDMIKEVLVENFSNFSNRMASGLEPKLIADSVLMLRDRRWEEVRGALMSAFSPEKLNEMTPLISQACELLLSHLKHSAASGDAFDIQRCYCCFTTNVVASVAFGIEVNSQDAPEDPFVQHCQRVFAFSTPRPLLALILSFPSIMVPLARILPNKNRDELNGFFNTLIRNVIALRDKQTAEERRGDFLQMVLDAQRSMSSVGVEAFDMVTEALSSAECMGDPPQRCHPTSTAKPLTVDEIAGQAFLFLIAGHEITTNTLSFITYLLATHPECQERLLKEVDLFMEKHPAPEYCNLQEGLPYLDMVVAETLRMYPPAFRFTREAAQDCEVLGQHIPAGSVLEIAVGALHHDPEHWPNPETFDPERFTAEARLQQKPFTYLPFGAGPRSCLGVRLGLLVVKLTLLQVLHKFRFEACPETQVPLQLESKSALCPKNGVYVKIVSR
Nature of the assay: ChEBML_213089. The source says:
In vitro inhibition of thromboxane B2 production in rat whole blood.

Each structure is given as a SMILES string. A value given as a limit tells only on which side of the number the result lay.

In turn, `CC1=NC(C)=C(C(=O)OCC(C)C)C(c2cccc(-c3cccnc3)c2)C1C(=O)OCC(C)C` (stereo unspecified) [2,6-Dimethyl-4-(3-pyridin-3-yl-phenyl)-1,4-dihydro-pyridine-3,5-dicarboxylic acid diisobutyl ester] showed an IC50 above 1000 nM.

`CCOC(=O)C1=C(CC)N=C(CC)C(C(=O)OCC)C1c1cccc(-n2ccnc2)c1` (stereo unspecified) [2,6-Diethyl-4-(3-imidazol-1-yl-phenyl)-1,4-dihydro-pyridine-3,5-dicarboxylic acid diethyl ester] had a half-inhibitory concentration (IC50) above 1000 nM.

The compound `CCOC(=O)C1C(C)=NC(C)=C(C(=O)OCCN(C)Cc2ccccc2)C1c1cccc(-c2cccnc2)c1` (stereo unspecified) [2,6-Dimethyl-4-(3-pyridin-3-yl-phenyl)-1,4-dihydro-pyridine-3,5-dicarboxylic acid 3-[2-(benzyl-methyl-amino)-ethyl] ester 5-ethyl ester] registered a 50% inhibitory concentration (IC50) above 1000 nM.

As for `CCOC(=O)C1=C(C)N=C(C)C(C(=O)OCC)C1c1ccc(-n2ccnc2)cc1` (stereo unspecified) [4-(4-Imidazol-1-yl-phenyl)-2,6-dimethyl-1,4-dihydro-pyridine-3,5-dicarboxylic acid diethyl ester], the IC50 was above 1000 nM.

In turn, `CCOC(=O)C1=C(C)N=C(C)C(C(=O)O)C1c1cccc(-n2ccnc2)c1` (stereo unspecified) [4-(3-Imidazol-1-yl-phenyl)-2,6-dimethyl-1,4-dihydro-pyridine-3,5-dicarboxylic acid monoethyl ester] registered an IC50 above 1000 nM.

As for `CCOC(=O)C1=C(C)N=C(C)C(C(=O)OCC)C1c1ccccc1-n1ccnc1` (stereo unspecified) [4-(2-Imidazol-1-yl-phenyl)-2,6-dimethyl-1,4-dihydro-pyridine-3,5-dicarboxylic acid diethyl ester], the concentration for half-maximal inhibition (IC50) was above 1000 nM.

A word on the IC50: it is the concentration that inhibits the measured activity by half.
